The text below walks through data of ChEMBL document CHEMBL1131687, “Dienyl diketones as anticancer agents: synthesis and biological evaluation of some aromatic derivatives” (1999).

What all share (type): functional
Assay [1] can be described thus: In vitro cytotoxicity against the growth of Colon-205 cancer cell line. The settings on record: Homo sapiens, Cancer cell lines; read-out: LD50 (the source's name).
The next assay has as its system KB 3-1. Description: In vitro cytotoxicity against the growth of KB-cell line. The settings on record: Homo sapiens, read-out: LD50 (the source's name).
The next assay deals with HEp-2. Description: In vitro cytotoxicity against the growth of Hep-2 cell line. The settings on record: Homo sapiens, read-out: LD50 (the source's name).
The subject of a further assay is HeLa. Put plainly: In vitro cytotoxicity against the growth of HeLa-cell line. The settings on record: Homo sapiens, read-out: LD50 (the source's name).

In brackets after ≈: the same amount, converted by molar mass.

With `CCC(=O)/C=C\C=C\C(=O)c1ccccc1`, the CC50 is 1 µg/mL (≈ 4.67 µM) in assay [1], over 10 µg/mL with KB 3-1, over 10 µg/mL with HEp-2 and over 10 µg/mL in the assay on HeLa.

As to `CC(=O)/C=C\C=C\C(=O)c1ccccc1`, the CC50 in assay [1] is 1 µg/mL (≈ 4.99 µM); in the assay on KB 3-1 it was 0.8 µg/mL (≈ 4 µM); in the assay with HEp-2, over 10 µg/mL; in the assay with HeLa it was over 10 µg/mL.

In the case of `CCCCCCC(=O)/C=C\C=C\C(=O)c1ccc(C(=O)OC)cc1`, the CC50 is 0.8 µg/mL (≈ 2.44 µM) in assay [1], over 10 µg/mL in the assay on KB 3-1, over 10 µg/mL in the assay with HEp-2 and over 10 µg/mL with HeLa.

For the compound `CCC(=O)/C=C/C=C\C(=O)CC(C)C`, the CC50 (in assay [1]; with KB 3-1; in the assay with HEp-2; in the assay on HeLa) was over 10 µg/mL each time.

As for `CCC(=O)/C=C/C=C\C(C)=O`, the CC50 (in assay [1]; with KB 3-1; in the assay with HEp-2; in the assay with HeLa) was over 10 µg/mL each time.

`CCCCCCC(=O)/C=C/C=C/C(=O)c1ccc(C(=O)OC)cc1`: the CC50 (in assay [1]; with KB 3-1; in the assay with HEp-2; in the assay on HeLa) was over 10 µg/mL each time.
